Assay results from PMC8162438, “Cancer cell-selective modulation of mitochondrial respiration and metabolism by potent organogold(III) dithiocarbamates” (Chemical Science, 2020).

System: MDA-MB-231
Test: Mitochondrial membrane potential (JC-1)
Assay type: cell-based
Details: MDA-MB-231, 10 μM, 6 h, versus DMSO
Description: Activated DEG included NDUFS7, [complex I], COX7A1 gene [complex IV], and ATP5O, ATP5I genes [complex V] whereas the inhibited DEG were MT-ND4L [complex I], SDHD gene [complex II], and ATP5C, ATP5F [complex V]. […] These findings prompted functional biology experiments to further corroborate the effect of 2a or its mechanism of action in TNBC. We examined the effect of 2a on mitochondrial membrane potential, assayed by JC-1 dye.[85] […] We used carbonyl cyanide m-chlorophenyl hydrazine (CCCP), an uncoupler, as a positive control to validate the experiment. The MMP is a key driving force in ATP synthesis and overall a key factor in maintaining redox homeostasis throughout the cell.[86] […]
text (Figure 5C). Samples 37 °C, NaN 3, methyl-β-cyclodextrin, and chlorpromazine hydrochloride were calculated using calibration curve Fig. S134 and samples wortmannin, genistein, and +4 °C were calculated using calibration curve Fig. S135. […]
Prior to analysis samples were required to pass three tests before library construction: 1) nanodrop for RNA purity (OD 260/OD280), 2) agarose gel electrophoresis for RNA integrity and potential contamination, and 3) Agilent 2100 check RNA integrity. […] After library construction, qPCR was used to accurately quantify the library effective concentration (> 2 nM), in order to ensure the library quality. […]

C[N+](C)=C1[S][Au-2]2([S]1)[c]1ccccc1Cc1cccc[n+]12.F[P-](F)(F)(F)(F)F (stereo not shown) [2a]
Mitochondrial membrane potential (JC-1): strong depolarization of the MMP
